# Data from patent US9073853B2, “Cycloalkane carboxylic acid derivatives as CXCR3 receptor antagonists” (Sanofi, priority 2011, dated 2015).
# Target: human CXCR3-A receptor (Homo sapiens (Human), UniProt P49682)
# Experiment: 125I-CXCL10 competition radioligand binding assay
# Conditions: displacement of 125I-CXCL10 from membranes of CHO cells expressing human recombinant CXCR3-A
# Procedure, shortened: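 Membranes from a recombinant cell line expressing human CXCR3-A (10-20 μg protein) were incubated with 125I-CXCL10 and test compound for 60 min at 25° C, then filtered onto PEI-soaked GF/B filters and gamma-counted. IC50 and Hill slope came from four-parameter nonlinear fitting of competition curves.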
# human CXCR3-A receptor, sequence (P49682 whole entry): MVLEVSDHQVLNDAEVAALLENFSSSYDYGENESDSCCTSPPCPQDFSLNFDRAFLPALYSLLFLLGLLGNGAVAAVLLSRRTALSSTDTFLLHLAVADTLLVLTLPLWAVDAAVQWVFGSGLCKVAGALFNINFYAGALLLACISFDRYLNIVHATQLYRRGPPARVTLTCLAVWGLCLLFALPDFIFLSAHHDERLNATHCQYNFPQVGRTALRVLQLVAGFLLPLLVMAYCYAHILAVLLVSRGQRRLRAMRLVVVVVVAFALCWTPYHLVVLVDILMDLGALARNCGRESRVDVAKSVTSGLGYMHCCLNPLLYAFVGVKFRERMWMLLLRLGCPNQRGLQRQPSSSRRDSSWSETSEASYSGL
row,IC50,SMILES
1,52 nM,"CCc1cc(CN(C[C@H]2CC[C@H](C(=O)O)CC2)C(C)c2ccc(Cl)c(F)c2)ccc1OCCN1C(=O)CCC1=O (stereo partly drawn) [Example 89, trans-4-[([1-(4-Chloro-3-fluoro-phenyl)-ethyl]-{4-[2-(2,5-dioxo-pyrrolidin-1-yl)-ethoxy]-3-ethyl-benzyl}-amino)-methyl]-cyclohexanecarboxylic acid]"
2,182 nM,"COc1cc(CN(C[C@H]2CC[C@H](C(=O)O)CC2)C(C)c2ccc(Cl)c(Cl)c2)ccc1OCCN1C(=O)CCC1=O (stereo partly drawn) [Example 77, trans-4-[([1-(3,4-Dichloro-phenyl)-ethyl]-{4-[2-(2,5-dioxo-pyrrolidin-1-yl)-ethoxy]-3-methoxy-benzyl}-amino)-methyl]-cyclohexanecarboxylic acid]"
3,42 nM,"Cc1cc(CN(C[C@H]2CC[C@H](C(=O)O)CC2)C(C)c2ccc3c(c2)CCO3)ccc1OCCN1C(=O)CSC1=O (stereo partly drawn) [Example 33, trans-4-[([1-(2,3-Dihydro-benzofuran-5-yl)-ethyl]-{4-[2-(2,4-dioxo-thiazolidin-3-yl)-ethoxy]-3-methyl-benzyl}-amino)-methyl]-cyclohexanecarboxylic acid]"
4,1810 nM,"COc1cc(CN(C[C@H]2CC[C@@H](C(=O)O)C2)[C@@H](C)c2ccc(Cl)cc2)ccc1OCCN1C(=O)CCC1=O [Example 101, (1R,3S)-3-[([(S)-1-(4-Chloro-phenyl)-ethyl]-{4-[2-(2,5-dioxo-pyrrolidin-1-yl)-ethoxy]-3-methoxy-benzyl}-amino)-methyl]-cyclopentanecarboxylic acid]"
5,23 nM,"COc1cc(CN(C[C@H]2CC[C@H](C(=O)O)CC2)[C@H]2CCc3cc(Cl)ccc32)ccc1SCCN1C(=O)CCC1=O [Example 88, trans-4-[(((S)-5-Chloro-indan-1-yl)-{4-[2-(2,5-dioxo-pyrrolidin-1-yl)-ethylsulfanyl]-3-methoxy-benzyl}-amino)-methyl]-cyclohexanecarboxylic acid]"
6,482 nM,"Cc1cc(CN(C[C@H]2CC[C@H](C(=O)O)CC2)[C@@H](C)c2ccc(Cl)cc2)ccc1CCCN1C(=O)CCC1=O [Example 54, trans-4-[([(S)-1-(4-Chloro-phenyl)-ethyl]-{4-[3-(2,5-dioxo-pyrrolidin-1-yl)-propyl]-3-methyl-benzyl}-amino)-methyl]-cyclohexanecarboxylic acid]"
7,190 nM,"COc1cc(CN(C[C@@H]2CC[C@H](C(=O)O)C2)[C@H](C)c2ccc3c(c2)CCO3)ccc1OCCN1C(=O)CCC1=O [Example 108, (1S,3R)-3-[([(R)-1-(2,3-Dihydro-benzofuran-5-yl)-ethyl]-{4-[2-(2,5-dioxo-pyrrolidin-1-yl)-ethoxy]-3-methoxy-benzyl}-amino)-methyl]-cyclopentanecarboxylic acid]"
8,544 nM,"COc1cc(CN([C@H]2C[C@@H](C(=O)O)C2)[C@H](C)c2ccc3c(c2)CCC3)ccc1OCCn1c(=O)ccn(C)c1=O [Example 159, cis-3-(((R)-1-Indan-5-yl-ethyl)-{3-methoxy-4-[2-(3-methyl-2,6-dioxo-3,6-dihydro-2H-pyrimidin-1-yl)-ethoxy]-benzyl}-amino)-cyclobutanecarboxylic acid]"
9,1200 nM,"CCc1cc(CN(C(C)c2ccc(Cl)c(Cl)c2)[C@H]2C[C@@H](C(=O)O)C2)ccc1OCCN1C(=O)CCC1=O (stereo partly drawn) [Example 139, cis-3-([1-(3,4-Dichloro-phenyl)-ethyl]-{4-[2-(2,5-dioxo-pyrrolidin-1-yl)-ethoxy]-3-ethyl-benzyl}-amino)-cyclobutanecarboxylic acid]"
10,1660 nM,"COc1cc(CN(C[C@H]2CC[C@@H](C(=O)O)CC2)C2CCc3cc(Cl)ccc32)ccc1OCCN1C(=O)CCC1=O (stereo partly drawn) [Example 13, cis-4-[((5-Chloro-indan-1-yl)-{4-[2-(2,5-dioxo-pyrrolidin-1-yl)-ethoxy]-3-methoxy-benzyl}-amino)-methyl]-cyclohexane-carboxylic acid]"
11,2900 nM,"COc1cc(CN(C(C)c2ccc3c(c2)CCO3)[C@H]2C[C@H](C(=O)O)C2)ccc1OCCn1c(=O)ccn(C)c1=O (stereo partly drawn) [Example 120, trans-3-([1-(2,3-Dihydro-benzofuran-5-yl)-ethyl]-{3-methoxy-4-[2-(3-methyl-2,6-dioxo-3,6-dihydro-2H-pyrimidin-1-yl)-ethoxy]-benzyl}-amino)-cyclobutanecarboxylic acid]"
12,53 nM,"COc1cc(CN(C[C@@H]2CC[C@@H](C(=O)O)C2)[C@@H](C)c2ccc3c(c2)CCO3)ccc1OCCN1C(=O)CCC1=O [Example 105, (1R,3R)-3-[([(S)-1-(2,3-Dihydro-benzofuran-5-yl)-ethyl]-{4-[2-(2,5-dioxo-pyrrolidin-1-yl)-ethoxy]-3-methoxy-benzyl}-amino)-methyl]-cyclopentanecarboxylic acid]"
13,64 nM,"COc1cc(CN(C[C@H]2CC[C@H](C(=O)O)CC2)C2CCc3cc(Cl)ccc32)ccc1OCCN1C(=O)CCC1=O (stereo partly drawn) [Example 10, trans-4-[((5-Chloro-indan-1-yl)-{4-[2-(2,5-dioxo-pyrrolidin-1-yl)-ethoxy]-3-methoxy-benzyl}-amino)-methyl]-cyclohexane-carboxylic acid]"
14,465 nM,"Cc1cc(CN(C(C)c2ccc(Cl)c(F)c2)[C@H]2C[C@@H](C(=O)O)C2)ccc1OCCN1C(=O)CCC1=O (stereo partly drawn) [Example 125, cis-3-([1-(4-Chloro-3-fluoro-phenyl)-ethyl]-{4-[2-(2,5-dioxo-pyrrolidin-1-yl)-ethoxy]-3-methyl-benzyl}-amino)-cyclobutanecarboxylic acid]"
15,260 nM,"COc1cc(CN(C[C@H]2CC[C@@H](C(=O)O)C2)[C@H](C)c2ccc3c(c2)CCO3)ccc1OCCN1C(=O)CCC1=O [Example 103, (1R,3S)-3-[([(R)-1-(2,3-Dihydro-benzofuran-5-yl)-ethyl]-{4-[2-(2,5-dioxo-pyrrolidin-1-yl)-ethoxy]-3-methoxy-benzyl}-amino)-methyl]-cyclopentanecarboxylic acid]"
16,87 nM,"COc1cc(CN(C[C@H]2CC[C@H](C(=O)O)CC2)C2CCc3cc(Cl)c(C)cc32)ccc1OCCN1C(=O)CCC1=O (stereo partly drawn) [Example 42, trans-4-[((5-Chloro-6-methyl-indan-1-yl)-{4-[2-(2,5-dioxo-pyrrolidin-1-yl)-ethoxy]-3-methoxy-benzyl}-amino)-methyl]-cyclohexanecarboxylic acid]"
17,68 nM,"COc1cc(CN(C[C@H]2CC[C@H](C(=O)O)CC2)C2CCc3c2ccc(Cl)c3C)ccc1OCCN1C(=O)CCC1=O (stereo partly drawn) [Example 43, trans-4-[((5-Chloro-4-methyl-indan-1-yl)-{4-[2-(2,5-dioxo-pyrrolidin-1-yl)-ethoxy]-3-methoxy-benzyl}-amino)-methyl]-cyclohexanecarboxylic acid]"
18,105 nM,"Cc1cc([C@@H](C)N(Cc2ccc(OCCN3C(=O)CCC3=O)c(C)c2)[C@H]2C[C@@H](C(=O)O)C2)ccc1Cl [Example 129, cis-3-([(R)-1-(4-Chloro-3-methyl-phenyl)-ethyl]-{4-[2-(2,5-dioxo-pyrrolidin-1-yl)-ethoxy]-3-methyl-benzyl}-amino)-cyclobutanecarboxylic acid]"
19,165 nM,"CCc1cc(CN(C[C@H]2CC[C@H](C(=O)O)CC2)[C@H]2CCc3c2ccc(Cl)c3F)ccc1OCCN1C(=O)CCC1=O [Example 149, trans-4-[(((S)-5-Chloro-4-fluoro-indan-1-yl)-{4-[2-(2,5-dioxo-pyrrolidin-1-yl)-ethoxy]-3-ethyl-benzyl}-amino)-methyl]-cyclohexanecarboxylic acid]"
20,121 nM,"CCc1cc(CN(C[C@H]2CC[C@H](C(=O)O)CC2)[C@@H](C)c2ccc(Cl)c(F)c2)ccc1OCCN1C(=O)CCC1=O [Example 91, trans-4-[([(S)-1-(4-Chloro-3-fluoro-phenyl)-ethyl]-{4-[2-(2,5-dioxo-pyrrolidin-1-yl)-ethoxy]-3-ethyl-benzyl}-amino)-methyl]-cyclohexanecarboxylic acid]"
21,825 nM,"O=C1CCC(=O)N1CCOc1ccc(CN(C[C@H]2CC[C@H](C(=O)O)CC2)[C@H]2CCc3cc(Cl)ccc32)cc1F [Example 72, trans-4-[(((S)-5-Chloro-indan-1-yl)-{4-[2-(2,5-dioxo-pyrrolidin-1-yl)-ethoxy]-3-fluoro-benzyl}-amino)-methyl]-cyclohexanecarboxylic acid]"
22,15 nM,"COc1cc(CN(C[C@@H]2CC[C@@H](C(=O)O)C2)[C@H](C)c2ccc3c(c2)CCO3)ccc1OCCN1C(=O)CCC1=O [Example 104, (1R,3R)-3-[([(R)-1-(2,3-Dihydro-benzofuran-5-yl)-ethyl]-{4-[2-(2,5-dioxo-pyrrolidin-1-yl)-ethoxy]-3-methoxy-benzyl}-amino)-methyl]-cyclopentanecarboxylic acid]"
23,102 nM,"Cc1cc(CN(C[C@H]2CC[C@H](C(=O)O)CC2)C(C)c2ccc(C#N)cc2)ccc1OCCN1C(=O)CCC1=O (stereo partly drawn) [Example 61, trans-4-[([1-(4-Cyano-phenyl)-ethyl]-{4-[2-(2,5-dioxo-pyrrolidin-1-yl)-ethoxy]-3-methyl-benzyl}-amino)-methyl]-cyclohexanecarboxylic acid]"
24,746 nM,"COc1cc(CN(C[C@H]2CC[C@H](C(=O)O)CC2)C(C)c2ccc3c(c2)CCO3)ccc1C1CC1CN1C(=O)CCC1=O (stereo partly drawn) [Example 49, trans-4-[([1-(2,3-Dihydro-benzofuran-5-yl)-ethyl]-{4-[2-(2,5-dioxo-pyrrolidin-1-ylmethyl)-cyclopropyl]-3-methoxy-benzyl}-amino)-methyl]-cyclohexanecarboxylic acid]"
25,116 nM,"C[C@@H](c1ccc(Cl)cc1)N(Cc1ccc(OCCN2C(=O)CN(C)C2=O)c(Cl)c1)C[C@H]1CC[C@H](C(=O)O)CC1 [Example 23, trans-4-({{3-Chloro-4-[2-(3-methyl-2,5-dioxo-imidazolidin-1-yl)-ethoxy]-benzyl}-[(S)-1-(4-chloro-phenyl)-ethyl]-amino}-methyl)-cyclohexanecarboxylic acid]"
26,85 nM,"CCC(c1ccc2c(c1)CCO2)N(Cc1ccc(CCCN2C(=O)CCC2=O)c(OC)c1)C[C@H]1CC[C@H](C(=O)O)CC1 (stereo partly drawn) [Example 66, trans-4-[([1-(2,3-Dihydro-benzofuran-5-yl)-propyl]-{4-[3-(2,5-dioxo-pyrrolidin-1-yl)-propyl]-3-methoxy-benzyl}-amino)-methyl]-cyclohexanecarboxylic acid]"
